Earlier results, collected in US20070275934A1, “Treatment of pancreatic cancer with active vitamin d compounds in combination with other treatments” (priority 2004, published 2007).

Test system: patients with refractory malignancies
Conditions: weekly HDPA, Beer et al. 2001

- Mean peak calcitriol levels: within the therapeutic range
SMILES: C=C1/C(=C\C=C2/CCC[C@]3(C)[C@@H]([C@H](C)CCCC(C)(C)O)CC[C@@H]23)C[C@@H](O)C[C@@H]1O [calcitriol, 1α,25-dihydroxyvitamin D3]
- Dose-limiting toxicity: no dose-limiting toxicity
